Test results reported in article PMC5642494 (Oncotarget, 2017).

Experiments:
[1] = system: ZR-75-1 xenograft; test: ZR-75-1 xenograft efficacy in NOD SCID mice; type: in vivo, mouse
Method: Control animals were treated with vehicle (1% HEC/ 25 mM phosphate buffer, pH = 2) using the same schedule of dosing. The red bar just above the X-axis illustrates the duration of the treatment period. Tumor volume measurements were taken routinely during the course of the study and are plotted as mean +/- SEM versus days following tumor cell implantation. (B) Body weights were recorded routinely during the course of the study and are plotted as mean % change (+/– SEM) relative to the mean body weight recorded on the day just prior to the first day of dosing (baseline day = 27). (C) The waterfall plots indicate the relative tumor volumes for individual animals which were determined at the end of the dosing period (study day 55). […] Growth inhibition is observed in those instances where the calculated changes in %DT/C are less than 100% whereby greater inhibition results in smaller %DT/C values. Change in %DT/C values that are less than zero indicate regressions whereby the tumor volumes on day 55 are smaller than the baseline tumor volume measured on the day prior to the initiation of dosing (baseline day = day 27). […] The tumor volumes measured on day 27 served as the baseline volumes for the calculation of %DT/C. […] Potential CDK9 inhibition was assessed by measuring the expression of MCL1 or phosphorylation of serine 2 on the C-terminal domain repeat on RNA polymerase II (pCTD). […]

[2] = system: MCF7 cells; test: SA-β-gal immunofluorescence (senescence), MCF7; type: cell-based, human
Method: After treatment, cells were fixed, washed with PBS, permeabilized and β-gal was detected using anti-β-galactosidase antibody; for multiplexed assays, TUNEL staining was carried out using Roche TUNEL reagents as indicated above. Nuclei were also stained with PI for total cell counting. Plates were read in an Acumen Explorer Ex3 (TTP Labtech) and raw data were analyzed with Cellista software. Outputs were expressed as percentages of each identified subpopulation 1) positive β-gal, and 2) total cell number. The percentages of β-gal positive cells, TUNEL positive cells, and cell numbers were plotted in Microsoft Excel.

[3] = system: pRb at S807/811; test: Immunoblotting of phospho-Rb in ZR-75-1, T-47D and MCF7 cells; type: cell-based, human; details: MCF7, T-47D, ZR-75-1 cells; 24 hours; 0.027 µM to 20 µM
Method: Protein lysates were prepared from the cells and analyzed for the expression of various biomarkers by immunoblotting. The biomarkers included phosphor-Rb at serines 807/811,phosphorylation of serine 2 on the C-terminal repeat domain on RNA polymerase II (pCTD) and MCL1. Images of Western blots were cropped to denote the relevant band(s) for clarity. […] Ki-67 positive events were obtained by gating versus background signal.

SMILES: CCN1CCN(Cc2ccc(Nc3ncc(F)c(-c4cc(F)c5nc(C)n(C(C)C)c5c4)n3)nc2)CC1 [abemaciclib, Abemaciclib]
- tumor volume ([1]; 75 mg/kg PO QDx28, NOD SCID mice, ZR-75-1 xenograft): measured reduction in tumor volume (regression)
- anti-tumor activity ([1]; 50 or 75 mg/kg PO QDx28, single agent): Dose-dependent anti-tumor activity
- % β-gal Positive MCF7 Cells ([2]; 0.5 µM, 4 days): 16.15 ± 1.48%
- % β-gal Positive MCF7 Cells ([2]; 0.5 µM, 7 days): 16.25 ± 0.35%
- % β-gal Positive MCF7 Cells ([2]; 0.5 µM, 10 days): 19.7 ± 1.83%
- % β-gal Positive MCF7 Cells ([2]; 2 µM, 4 days): 42.45 ± 5.86%
- % β-gal Positive MCF7 Cells ([2]; 2 µM, 7 days): 55.4 ± 18.8%
- % β-gal Positive MCF7 Cells ([2]; 2 µM, 10 days): 30.85 ± 3.46%
- levels of phosphorylated Rb (pRb) at S807/811 [3]: decrease in levels of phosphorylated Rb
